Values quoted from earlier work as cited in patent publication US20150018320A1, “Hormone Containing Emulsion Comprising Krill Phospholipids” (B. Braun Melsungen AG, priority 2012, published 2015).

Test system: TBI patients
Details: two clinical trials

In the case of `CC(=O)[C@H]1CC[C@H]2[C@@H]3CCC4=CC(=O)CC[C@]4(C)[C@H]3CC[C@]12C` [progesterone, pregn-4-ene-3,20-dione], the mortality is listed as “decreased mortality” and the safety and tolerability is listed as “safe and well tolerated”.
